Experiments:
[1] = test system: Leigh syndrome (GM03672) fibroblasts; test: RSL3 cytoprotection assay, Leigh fibroblasts; type: cell-based, human; conditions: RSL3, 4 hours, FIG. 9
Procedure: Patient fibroblasts were acquired from Coriell Institute for Medical Research (Camden, NJ, USA). GM03672 is an untransformed fibroblast cell line from a Leigh syndrome patient carrying an unknown mutation. GM08402 is an untransformed fibroblast from an apparently healthy individual. Cells were cultured at 37° C. at 5% CO2 in Eagle's Minimum Essential Medium (MEM, Corning), which was supplemented with Earle's salts and non-essential amino acids, 15% qualified fetal bovine serum, and 1% penicillin/streptomycin ([…]) to yield “Complete MEM.”
To initiate the RSL3 cytoprotection experiment, Healthy (GM08402) and Leigh syndrome (GM03672) fibroblasts were resuspended in Complete MEM. Cells were seeded at 10,000 cells per well in a clear, tissue cultured-treated, 96-well plate and incubated at 37° C. overnight. Following the incubation, supernatant was manually aspirated, taking care not to disrupt cells. […]. Luminescence units were quantified by GEN5 software on a BioTek SYNERGY neo2 plate reader (LUM filter).
RSL3 is an inhibitor of the enzyme glutathione peroxidase 4 (GPX4), which decreases lipid peroxides. RSL3 inhibition of GPX4 induces ferroptosis through iron-dependent accumulation of lipid ROS. In this assay, Healthy or Leigh fibroblasts were treated for 4 hours with RSL3 to induce ferroptosis or left untreated. Endogenous ATP levels were measured as an indicator of cellular viability using a commercially available kit (CellTiter-Glo® 2.0 Cell Viability Assay (Promega)).
[…]. […] Briefly, ferroptosis was induced with 1 μM RSL3 in healthy fibroblast cells and 375 nM RSL3 in fibroblasts from a patient with Leigh syndrome.
A preliminary experiment was performed to determine the effect of RSL3 injury on the fibroblasts of a healthy individual (cell line: GM08402) and the fibroblasts of a patient diagnosed with Leigh syndrome (cell line: GM03672).

[2] = Pharmacokinetics of Compound 3 after repeated (5 days) subcutaneous dosing; type: in vivo
Procedure: The volume of each dose delivered (mL/kg) was based on each individual animal's body weight. • This was a multiple dose terminal study dosed once per day over 5 days. Rats were taken down following their 5th and final dose. • Doses were administered in accordance with test facility standard operating procedures.
• Terminal blood samples were collected via cardiac puncture following inhalation anesthesia in accordance with test facility standard operating procedures. • Blood samples were collected into tubes with appropriate anticoagulant. Tubes were stored on wet ice until processed to plasma by centrifugation (3500 rpm at 5° C. for 10 minutes) within 20 minutes of collection. Sample aliquots of 100 μL were transferred into individual uniquely labeled matrix tubes and stored at nominal −80° C. until transferred to analytical chemistry for analysis. • Immediately following each terminal blood collection for all groups, animals were sacrificed and perfused with cold PBS. The following tissues were collected: heart and brain, in accordance with Table 4. • Plasma and tissue samples were processed for analysis by LC/MS/MS to determine the amounts/concentrations reported in the Figures.

[3] = test system: Ndufs4-KO mouse model of Leigh syndrome; test: Survival study in Ndufs4-KO mouse model of Leigh syndrome; type: in vivo; conditions: Ndufs4-KO mice
Procedure: Study design. A survival study was performed to test Compound 4 in a whole body (WB)-Ndufs4-KO mouse model of Leigh syndrome (B6.129S4-Ndufs4^tm1.1Rpa/J; JAX Stock #027058; “Ndufs4-KO mice”). Defects in the non-enzymatic, nuclear-encoded protein, NDUFS4 (NADH dehydrogenase (ubiquinone) Fe—S protein 4), cause a Leigh-like phenotype in humans that results in death within 3-16 months after birth. Exon 2 of the mouse Ndufs4 gene has been excised in this knockout allele. Three groups of mice were included in this study: (1) wild-type (WT) C57BL/6J mice (n=12), each receiving 20 mg/kg Compound 4 subcutaneously once per day starting at postnatal age 21 days (P21); (2) Ndufs4-KO mice (homozygous knock outs (“HOM”)) (“HOM Vehicle”) (n=9), each receiving vehicle (5% Kolliphor-ELP in 1×PBS at a dosage of 10 mL/kg/day) subcutaneously once per day starting at P21; and (3) Ndufs4-KO mice (“HOM Comp. 4, 20 mg/kg”) (n=13), each receiving 20 mg/kg Compound 4 subcutaneously per day starting at P21. All studies were performed under the approved IACUC protocol at Jackson Laboratories (Bar Harbor, ME). The mice were sacrificed and necropsied upon reaching a humane endpoint as determined by body conditioning and neurological scoring method developed by Jackson Laboratory for this animal model. Terminal plasma was collected via cardiocentesis post euthanasia for future analysis.
Statistical analysis. Kaplan Meier plot followed by chi squared test were performed using GraphPad Prism version 10.0.0, GraphPad Software (Boston, Massachusetts) (www.graphpad.com).

[4] = test system: Ndufs4-KO mouse model of Leigh syndrome; test: Biomarker evaluation study in Ndufs4-KO mouse model of Leigh syndrome; type: in vivo; conditions: Ndufs4-KO mice
Procedure: Study design. A biomarker evaluation study was performed to test Compound 4 in a mouse model of Leigh syndrome (B6.129S4-Ndufs4^tm1.1Rpa/J; JAX Stock #027058). All studies were performed under the approved IACUC protocol at Jackson Laboratories Bar Harbor ME. Three groups of mice were included in this study: (1) wild-type (WT) C57BL/6J mice (n=8), each receiving 20 mg/kg Compound 4 subcutaneously once per day starting at postnatal age 21 days (P21); (2) Ndufs4-KO mice (homozygous knock outs (“HOM”)) (“HOM Veh”) (n=8), each receiving vehicle (5% Kolliphor-ELP in 1×PBS at a dosage of 10 mL/kg/day) subcutaneously once per day starting at P21; and (3) Ndufs4-KO mice (“HOM Comp. 4, 20 mg/kg”) (n=8), each receiving 20 mg/kg Compound 4 subcutaneously per day starting at P21. From the age of P30, body weight and body temperature was measured daily. At the age of P30 and P40 animals were made to perform a forced exercise on an inclining treadmill for up to 15 minutes or reaching exhaustion whichever happened first. Retro-orbital blood collection (for plasma) was performed after each exercise session for L-Lactic acid level analysis using an enzymatic reaction (biochemical) method with colorimetric read out. The mice were sacrificed and necropsied at P45 or upon reaching a humane endpoint as determined by body conditioning and neurological scoring method developed by Jackson Laboratory for this animal model. Terminal plasma was collected via cardiocentesis post-euthanasia for mitokine analysis (GDF-15 and FGF-21) using an ELISA kit (Abcam: ab216947, ab212160). The manufacturer protocol was followed to generate a standard curve. Plasma was diluted 1:5 in phosphate buffered saline for the ELISA.
Statistical analysis. Kaplan Meier plot followed by chi squared test & two-way ANOVA followed by Dunnett's multiple comparisons test were performed using GraphPad Prism version 10.0.0, GraphPad Software (Boston, Massachusetts) (www.graphpad.com).

[5] = 20 mg/kg SC daily, terminal plasma, FIG. 24C

| SMILES | anti-ferroptosis properties compared among test articles [1] | uptake to plasma and clearance rate, mouse versus rat ([2]; 20 mg/kg SC mouse vs 10 mg/kg SC rat (60 mg/m^2), 30 minutes to 24 hours, FIG. 17) | tolerability ([2]; rat, 10 mg/kg SC, 5 daily doses) | effect on survival, Gehan Breslow-Wilcoxon test P ([3]; 20 mg/kg SC daily from P21) | effect on survival, logrank test P ([3]; 20 mg/kg SC daily from P21) | survival ([3]; 20 mg/kg SC once per day from P21, vs vehicle, FIG. 23) | survival proportion ([4]; 20 mg/kg SC daily from P21 until P46, vs vehicle, FIG. 24A) | exercise-induced lactic acidosis (plasma lactate) ([4]; 20 mg/kg SC daily, forced exercise at P30 and P40, FIG. 24B) | plasma FGF-21 [4, 5] | plasma GDF-15 [4, 5] |
| --- | --- | --- | --- | --- | --- | --- | --- | --- | --- | --- |
| CC1=C(C)C(=O)C(CC[C@@](C)(O)COCCC[Si](C)(C)C)=C(C)C1=O [Compound 3] | superior to Compounds 1, 4 and Vatiquinone | roughly equivalent | well tolerated |  |  |  |  |  |  |  |
| CC1=C(C)C(=O)C(CC[C@](C)(O)CCCCCCCCC(F)(F)F)=C(C)C1=O [Compound 4] | roughly equivalent |  |  | < 0.0001 | < 0.0001 | significantly improved survival | improved survival proportion | mitigated exercise-induced lactic acidosis | normalizing trends | significantly normalized |
